Reference: US8080558B2, “4-(tetrazol-5-yl)-quinazoline derivatives as anti-cancer agent” (Natco Pharma Limited, priority 2007, dated 2011)

Tested on: A549 cells
Experiment: Matrigel invasion assay (modified Boyden chamber), A549 cells
Format: cell-based
Settings: 100 to 800 ng/ml
Protocol: The in vitro invasiveness of H1299 or A549 cells in the presence of various concentrations of NRC compounds (as determined by MTT assay) was assessed using a modified Boyden chamber assay. Cells were treated with these compounds for 48 h. 1×10^6 cells were suspended in 600 μl of serum-free medium supplemented with 0.2% BSA and placed in the upper compartment of the transwell chambers (Corning Costar Fischer Scientific Cat #07-200-158, Pittsburgh Pa.) coated with Matrigel (0.7 mg/ml). The lower compartment of the chamber was filled with 200 μl of serum-medium and the cells were allowed to migrate for 24 h. After incubation, the cells were fixed and stained with Hema-3 and quantified as previously described (Mohanam, et al. 1993). The migrated cells were quantified as percent invasion.
Matrigel invasion was performed as described in materials and methods. […] Using H1299 cells similar retardation patterns of invasion was observed.

**Q.** With `C#Cc1cccc(Nc2ncnc3cc(OCCOC)c(OCCOC)cc23)c1` [Erlotinib] as the molecule, how does the invasiveness read?
**A.** The invasiveness was “decreased invasiveness in a dose dependent manner”.
